Consider 15 molecules from patent US7511144B2, “Reverse hydroxamic acid derivatives” (Kaken Pharmaceutical Co., Ltd., priority 2001, dated 2009).

Structures are written as SMILES.

What all share (format): biochemical
The target in test [1] is T1, Human MMP14 (Homo sapiens, UniProt P50281).
T1 construct: purchased Biogenesis or Calbiochem 5980-1461 or 475935
The test can be described thus: MMP14 inhibition experiment. As to conditions: concentration required for 50% inhibition of enzyme activity; read-out: IC50 value MMP-14. On the procedure: (§1) MMP inhibition experiment may be carried out using a fluorescent synthetic substrate according to, for example, the methods of Bickett et al. (D. Mark Bickett et al., Anal. Biochem., 1993, 212, 58-64) and Nagase et al. (H. Nagase et al., J. Biol. Chem., 1994, 269, 20952-20957). The methods of inhibition experiments carried out for various MMPs are described below.
Human MMP14 (Biogenesis #5980-1461 or Calbiochem #475935) in amount of 90 μL (4 ng) prepared in the assay buffer A was added to 90 μL of 20 μM fluorescent substrate (Dnp-Pro-Cha-Gly-Cys(Me)-His-Ala-Lys(Nma)-NH2) prepared in the assay buffer B, followed by reaction for 5 hours at 37° C.

For test [2], the target named is T2, Human MMP1 (Homo sapiens, UniProt P03956).
T2 construct: purchased Calbiochem 444208
T2 sequence (P03956 100-469): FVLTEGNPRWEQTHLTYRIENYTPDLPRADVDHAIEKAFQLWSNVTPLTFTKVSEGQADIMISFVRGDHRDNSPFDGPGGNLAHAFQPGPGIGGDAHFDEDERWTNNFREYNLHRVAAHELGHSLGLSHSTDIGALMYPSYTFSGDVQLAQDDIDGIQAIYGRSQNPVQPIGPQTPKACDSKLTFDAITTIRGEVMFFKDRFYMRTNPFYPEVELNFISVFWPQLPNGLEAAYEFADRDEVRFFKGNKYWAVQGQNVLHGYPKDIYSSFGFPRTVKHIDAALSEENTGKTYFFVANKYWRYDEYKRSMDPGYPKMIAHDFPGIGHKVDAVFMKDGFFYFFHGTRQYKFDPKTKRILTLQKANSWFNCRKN
The test can be described thus: MMP1 inhibition experiment. The conditions noted are these: read-out: IC50 value MMP-1.
Experimental: This enzyme solution in amount of 10 μL was diluted to 90 μL with the assay buffer A, which was added to 90 μL of 20 μM fluorescent substrate (Dnp-Pro-Cha(β-cyclohexylalanyl)-Gly-Cys(Me)-His-Ala-Lys(Nma)-NH2) prepared in the assay buffer B, followed by reaction for 5 hours at 37° C.

The target of test [3] is T3, Human MMP17 (Homo sapiens, UniProt Q9ULZ9).
T3 construct: purchased Calbiochem 475940
T3 sequence (Q9ULZ9 126-300 limits assumed): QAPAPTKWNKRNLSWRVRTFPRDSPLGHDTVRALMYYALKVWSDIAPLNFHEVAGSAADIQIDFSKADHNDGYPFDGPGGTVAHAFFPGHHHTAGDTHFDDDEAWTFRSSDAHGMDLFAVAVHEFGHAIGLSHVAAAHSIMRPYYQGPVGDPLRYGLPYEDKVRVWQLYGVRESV
The test can be described thus: MMP17 inhibition test. The conditions noted are these: concentration required for 50% inhibition of enzyme activity; read-out: IC50 value MMP-17.

Test [4] concerns the target T4, Human MMP9 (Homo sapiens, UniProt P14780).
T4 construct: purchased Calbiochem 444231
In words: MMP9 inhibition experiment. The conditions noted are these: read-out: IC50 value MMP-9.
Experimental: This enzyme solution in amount of 1 μL was diluted to 90 μL with the assay buffer A, which was added to 90 μL of 20 μM fluorescent substrate (Dnp-Pro-Cha-Gly-Cys(Me)-His-Ala-Lys(Nma)-NH2) prepared in the assay buffer B, followed by reaction for 4 hours at 37° C.

Test [5] deals with T5, Human MMP13 (Homo sapiens, UniProt P45452).
T5 construct: purchased Chemicon CC068
In words: MMP13 inhibition experiment. As to conditions: concentration required for 50% inhibition of enzyme activity; read-out: IC50 value MMP-13.
Experimental: Human MMP13 (Chemicon #CC068) in amount of 90 μL (200 ng) was activated by mixing with 10 μL of 10 mM APMA, followed by reaction for 1 hour at 37° C. This enzyme solution in amount of 0.6 μL was diluted to 90 μL with the assay buffer A, which was added to 90 μL of 20 μM fluorescent substrate (Dnp-Pro-Cha-Gly-Cys(Me)-His-Ala-Lys(Nma)-NH2) prepared in the assay buffer B, followed by reaction for 4 hours at 37° C.

For test [6], the target named is T6, Human MMP2 (Homo sapiens, UniProt P08253).
T6 construct: purchased Calbiochem 444213
T6 sequence (P08253 110-660): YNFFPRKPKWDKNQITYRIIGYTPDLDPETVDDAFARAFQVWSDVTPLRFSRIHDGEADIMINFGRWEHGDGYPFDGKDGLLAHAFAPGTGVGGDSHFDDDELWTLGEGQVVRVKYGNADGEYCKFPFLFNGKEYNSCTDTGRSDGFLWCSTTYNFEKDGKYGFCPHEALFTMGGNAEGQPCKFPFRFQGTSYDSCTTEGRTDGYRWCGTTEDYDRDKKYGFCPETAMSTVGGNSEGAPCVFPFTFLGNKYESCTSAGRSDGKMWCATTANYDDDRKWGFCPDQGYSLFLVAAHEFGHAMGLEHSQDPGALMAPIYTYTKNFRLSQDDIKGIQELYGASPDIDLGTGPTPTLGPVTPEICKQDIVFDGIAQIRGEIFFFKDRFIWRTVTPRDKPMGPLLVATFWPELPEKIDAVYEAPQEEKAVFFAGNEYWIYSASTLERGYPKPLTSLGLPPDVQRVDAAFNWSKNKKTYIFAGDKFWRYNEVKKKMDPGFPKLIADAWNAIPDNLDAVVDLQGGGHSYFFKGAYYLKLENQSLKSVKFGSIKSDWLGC
The test can be described thus: MMP2 inhibition experiment. As to conditions: concentration required for 50% inhibition of enzyme activity; read-out: IC50 value MMP-2.
Experimental: This enzyme solution in amount of 10 μL was diluted to 90 μL with the assay buffer A, which was added to 90 μL of 20 μM fluorescent substrate (MOCAc((7-methoxycoumarin-4-yl)acetyl)-Pro-Leu-Gly-Leu-A2pr(Dnp)-Ala-Arg-NH2, Peptide Institute, Inc., #3163-v) prepared in the assay buffer B, followed by reaction for 5 hours at 37° C.

In test [7] the target is T7, TACE (Homo sapiens, UniProt P78536).
T7 construct: made in house; host or cells: mammalian cells or insect cells
T7 sequence (P78536 215-824): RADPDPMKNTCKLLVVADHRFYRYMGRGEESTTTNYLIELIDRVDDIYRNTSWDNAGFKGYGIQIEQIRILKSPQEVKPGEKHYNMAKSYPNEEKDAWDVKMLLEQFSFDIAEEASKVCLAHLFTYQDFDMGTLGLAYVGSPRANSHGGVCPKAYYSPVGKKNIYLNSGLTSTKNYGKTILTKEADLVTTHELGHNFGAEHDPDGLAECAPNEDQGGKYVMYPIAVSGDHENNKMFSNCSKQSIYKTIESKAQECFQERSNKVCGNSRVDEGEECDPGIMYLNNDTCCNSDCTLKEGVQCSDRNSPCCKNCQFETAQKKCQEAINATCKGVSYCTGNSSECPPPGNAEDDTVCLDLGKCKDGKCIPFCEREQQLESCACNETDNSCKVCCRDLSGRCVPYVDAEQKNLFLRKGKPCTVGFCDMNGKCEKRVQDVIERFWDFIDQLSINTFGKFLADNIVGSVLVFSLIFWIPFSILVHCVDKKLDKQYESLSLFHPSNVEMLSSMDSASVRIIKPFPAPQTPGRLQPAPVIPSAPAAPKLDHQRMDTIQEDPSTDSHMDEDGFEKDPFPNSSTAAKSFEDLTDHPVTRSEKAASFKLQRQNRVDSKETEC
The test can be described thus: TACE inhibition experiment (in vitro).
Experimental: TACE inhibition experiments were conducted using TACE obtained as above as an enzyme and by measuring TACE activity in the presence or absence of a test substance using Nma (N-metylanthranilic acid)-[sequence]Dnp(dinitrophenyl)-D-Arg-NH2 being a fluorescent synthetic substrate which contains the sequence of cleavage site of membrane-bound TNF by TACE, as a substrate.
More specifically, 14 units of an enzyme solution (1 unit is defined as the amount of enzyme which degrades 1 pmol of the substrate per minute at 25° C.) which was prepared in 90 μL of assay buffer A (50 mM Tris-HCl buffer (pH 7.5) containing 200 mM sodium chloride, 5 mM calcium chloride, 10 μM zinc sulfate, 0.004% sodium azide and 2 mg/mL bovine serum albumin) and 90 μL of 20 μM fluorescent synthetic substrate prepared in assay buffer B (50 mM Tris-HCl buffer (pH 7.5) containing 200 mM sodium chloride, 5 mM calcium chloride, 10 μM zinc sulfate, 0.004% sodium azide and 0.05% PLURONIC F-68) are mixed and reacted for 2 hours at 37° C.

The target in test [8] is T8, Human MMP3 (Homo sapiens, UniProt P08254).
T8 construct: purchased Calbiochem 444217
T8 sequence (P08254 100-272 limits assumed): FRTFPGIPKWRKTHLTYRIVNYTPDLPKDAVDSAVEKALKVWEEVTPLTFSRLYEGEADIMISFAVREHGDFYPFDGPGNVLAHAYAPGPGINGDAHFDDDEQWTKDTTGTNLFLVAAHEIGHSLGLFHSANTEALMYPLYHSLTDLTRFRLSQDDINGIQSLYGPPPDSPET
The test can be described thus: MMP3 inhibition experiment. The conditions noted are these: concentration required for 50% inhibition of enzyme activity; read-out: IC50 value MMP-3. On the procedure: as §1
Human MMP3 (Calbiochem #444217) in 90 μL (5 ng) prepared in the assay buffer A was added to 90 μL of 20 μM fluorescent substrate NFF-3(MOCAc-Arg-Pro-Lys-Pro-Val-Glu-Nva-Trp-Arg-Lys(Dnp)-NH2, Peptide Institute, Inc., #3168-v) prepared in the assay buffer B, followed by reaction for 5 hours at 37° C.

T4 sequence (P14780 107-707 limits assumed): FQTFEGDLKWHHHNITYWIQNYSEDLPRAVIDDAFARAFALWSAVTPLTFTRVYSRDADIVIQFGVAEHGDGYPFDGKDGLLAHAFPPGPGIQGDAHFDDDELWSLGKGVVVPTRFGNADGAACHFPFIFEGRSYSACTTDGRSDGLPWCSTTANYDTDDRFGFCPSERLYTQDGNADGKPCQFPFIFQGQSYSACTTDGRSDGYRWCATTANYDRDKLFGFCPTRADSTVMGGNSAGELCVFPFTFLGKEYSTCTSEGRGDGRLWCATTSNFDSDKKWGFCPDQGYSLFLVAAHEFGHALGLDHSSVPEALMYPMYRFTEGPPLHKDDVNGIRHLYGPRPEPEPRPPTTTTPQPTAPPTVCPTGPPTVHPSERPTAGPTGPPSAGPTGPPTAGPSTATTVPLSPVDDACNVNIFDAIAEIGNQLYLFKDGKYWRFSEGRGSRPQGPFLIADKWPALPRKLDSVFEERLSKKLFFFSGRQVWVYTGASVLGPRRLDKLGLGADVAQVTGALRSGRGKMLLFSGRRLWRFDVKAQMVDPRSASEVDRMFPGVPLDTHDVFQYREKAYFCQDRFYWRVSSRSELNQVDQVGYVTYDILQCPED

For the molecule `Cc1cc(COc2ccc(S(=O)(=O)CC(CN3CCN(CC(C)C)CC3)N(O)C=O)cc2)c2ccccc2n1` (stereo not drawn) [Example I-46], the IC50 in test [1] is over 100 µM; in test [2] it was over 100 µM; in test [3], 0.65 µM; in test [4] it was over 100 µM; in test [5], 42 µM; in test [6], 20 µM. Also, the results for the IC50 in test [7] and in test [8] were 0.022 µM and 4.4 µM, respectively.
As for `Cc1ccc2nc(C)cc(COc3ccc(S(=O)(=O)CC(CC4CCC(=NO)CC4)N(O)C=O)cc3)c2c1` (stereo not drawn) [Example I-76], the 50% inhibitory concentration (IC50) in test [1] is 31 µM; in test [2], 40 µM; in test [3], 1.6 µM; in test [4], 40 µM; in test [5], 6 µM; in test [6], 10 µM. The IC50 in test [7] amounted to 0.005 µM; in test [8] it was 0.8 µM.
In the case of `Cc1cc(C)cc(COc2ccc(S(=O)(=O)CC(C=C3CCC4(CC3)OCCO4)N(O)C=O)cc2)c1` (stereo not drawn) [Example I-91], the 50% inhibitory concentration (IC50) in test [1] is 40 µM; in test [2], over 100 µM; in test [3] it was 40 µM; in test [4], 33 µM; in test [5], 35 µM; in test [6] it was 43 µM. Further, the half-inhibitory concentration (IC50) in test [7] was found to be 0.4 µM; in test [8] it was 35 µM.
For `Cc1cc(C)cc(COc2ccc(S(=O)(=O)CC(C=C3CCC(=O)CC3)N(O)C=O)cc2)c1` (stereo not drawn) [Example I-92], the 50% inhibitory concentration (IC50) was over 100 µM in test [1]; over 100 µM in test [2]; 40 µM in test [3]; 60 µM in test [4]; 35 µM in test [5]; 43 µM in test [6]. The IC50 was found to be 0.3 µM in test [7] and 60 µM in test [8].
Consider `COc1cc(C)cc(COc2ccc(S(=O)(=O)CC(CC3CCC4(CC3)OCCO4)N(O)C=O)cc2)c1` (stereo not drawn) [Example I-93], for which the concentration for half-maximal inhibition (IC50) in test [1] was found to be 33 µM; in test [2], 60 µM; in test [3] it was 20 µM; in test [4], 30 µM; in test [5], 12 µM; in test [6], 10 µM. Further, the values for the IC50 in test [7] and in test [8] were 0.3 µM and 15 µM, respectively.
Regarding `COc1cc(C)cc(COc2ccc(S(=O)(=O)CC(C=C3CCC(=O)CC3)N(O)C=O)cc2)c1` (stereo not drawn) [Example I-94], the IC50 is 40 µM in test [1]; 90 µM in test [2]; 22 µM in test [3]; 40 µM in test [4]; 20 µM in test [5]; 23 µM in test [6]. For the same molecule, the IC50 in test [7] was determined as 0.08 µM; in test [8], 21 µM.
Turning to `COc1cc(C)cc(COc2ccc(S(=O)(=O)CC(C=C3CCC4(CC3)OCCO4)N(O)C=O)cc2)c1` (stereo not drawn) [Example I-95], the IC50 in test [1], in test [2], in test [3], in test [4], in test [5] and in test [6] was over 100 µM each time. The figures for the half-inhibitory concentration (IC50) in test [7] and in test [8] were 1.5 µM and over 100 µM, respectively.
Regarding `Cc1cc(Cl)cc(COc2ccc(S(=O)(=O)CC(C3CCC4(CC3)OCCO4)N(O)C=O)cc2)c1` (stereo not drawn) [Example I-98], the IC50 in test [1] came to 7 µM; in test [2] it was 50 µM; in test [3], 1.6 µM; in test [4], 20 µM; in test [5], 2 µM; in test [6] it was 2 µM. Also, the IC50 in test [7] worked out at 0.08 µM; in test [8], 1.2 µM.
Take `Cc1cc(Cl)cc(COc2ccc(S(=O)(=O)CC(CC3CCC4(CC3)OCCO4)N(O)C=O)cc2)c1` (stereo not drawn) [Example I-99]: the half-maximal inhibitory concentration (IC50) in test [1] worked out at 25 µM; in test [2] it was 40 µM; in test [3], 13 µM; in test [4], 20 µM; in test [5], 18 µM; in test [6], 5 µM. Further, the IC50 in test [7] was determined as 1.1 µM; in test [8], 6 µM.
As for `Cc1cc(Cl)cc(COc2ccc(S(=O)(=O)CC(CC3CCC(=NO)CC3)N(O)C=O)cc2)c1` (stereo not drawn) [Example I-100], the half-maximal inhibitory concentration (IC50) in test [1] came to 25 µM; in test [2] it was 43 µM; in test [3], 7 µM; in test [4], 23 µM; in test [5], 6 µM; in test [6], 4 µM. The concentration for half-maximal inhibition (IC50) in test [7] amounted to 0.2 µM; in test [8], 7 µM.
Take `Cc1cc(Cl)cc(COc2ccc(S(=O)(=O)CC(CC3CCC(=O)CC3)N(O)C=O)cc2)c1` (stereo not drawn) [Example I-101]: the concentration for half-maximal inhibition (IC50) in test [1] was determined as 20 µM; in test [2] it was 40 µM; in test [3] it was 5 µM; in test [4] it was 20 µM; in test [5] it was 3 µM; in test [6], 2.3 µM. The IC50 came out at 0.12 µM in test [7] and 7 µM in test [8].
With `Cc1cc(Cl)cc(COc2ccc(S(=O)(=O)CC(C=C3CCC(=NO)CC3)N(O)C=O)cc2)c1` (stereo not drawn) [Example I-102], the IC50 in test [1] stood at 33 µM; in test [2], 80 µM; in test [3], 30 µM; in test [4], 40 µM; in test [5] it was 16 µM; in test [6] it was 20 µM. Moreover, the IC50 worked out at 0.13 µM in test [7] and 25 µM in test [8].
Turning to `Cc1cc(Cl)cc(COc2ccc(S(=O)(=O)CC(C=C3CCC4(CC3)OCCO4)N(O)C=O)cc2)c1` (stereo not drawn) [Example I-103], the IC50 in test [1] amounted to 33 µM; in test [2] it was 60 µM; in test [3] it was 40 µM; in test [4], 38 µM; in test [5] it was 25 µM; in test [6], 38 µM. For the same molecule, the half-maximal inhibitory concentration (IC50) in test [7] was 0.5 µM; in test [8] it was 30 µM.
For `Cc1cc(COc2ccc(S(=O)(=O)CC(C=C3CCC(=NO)CC3)N(O)C=O)cc2)cc(C)n1` (stereo not drawn) [Example I-111], the IC50 was over 100 µM in test [1]; over 100 µM in test [2]; 30 µM in test [3]; over 100 µM in test [4]; 8 µM in test [5]; 4.1 µM in test [6]. Moreover, the IC50 stood at 0.05 µM in test [7] and 30 µM in test [8].
In the case of `Cc1cc(COc2ccc(S(=O)(=O)CC(CC3CCC(=NO)CC3)N(O)C=O)cc2)cc(C)n1` (stereo not drawn) [Example I-112], the IC50 in test [1] was 60 µM; in test [2], over 100 µM; in test [3], 4 µM; in test [4] it was 40 µM; in test [5], 2 µM; in test [6], 1.3 µM. For the same molecule, the half-maximal inhibitory concentration (IC50) in test [7] amounted to 0.063 µM; in test [8], 4 µM.
